The source of these data is the NIST ThermoML archive (doi:10.1021/je0500375).

Numbers after ± are expanded uncertainties.

A short description of this data set: activity coefficient (dimensionless); of the first substance listed, at infinite dilution; xn = mol fraction of the nth substance listed. The conditions noted are these: 101.33 kPa, Liquid, Chromatography, x1 = 0.

Take `C#CCCCCC` [1-heptyne] + CCCCCCCCOS(=O)(=O)[O-].CCCCn1cc[n+](C)c1: the activity coefficient is, setting by setting: (298.15 K) 2.66 ± 0.18; (313.15 K) 2.85 ± 0.19; (328.15 K) 3.08 ± 0.21.
As for `C#CCCCC` [1-hexyne] + CCCCCCCCOS(=O)(=O)[O-].CCCCn1cc[n+](C)c1, the activity coefficient is, setting by setting: (298.15 K) 2.25 ± 0.15; (313.15 K) 2.38 ± 0.16; (328.15 K) 2.56 ± 0.17.
In the same order, the values of `C#CCCCCCC` [1-octyne] + CCCCCCCCOS(=O)(=O)[O-].CCCCn1cc[n+](C)c1 are 3.25 ± 0.22, 3.42 ± 0.23 and 3.65 ± 0.25.
Turning to `c1ccccc1` [benzene] + CCCCCCCCOS(=O)(=O)[O-].CCCCn1cc[n+](C)c1, the activity coefficient stood at 1.42 ± 0.09 (298.15 K), 1.44 ± 0.09 (313.15 K) and 1.45 ± 0.1 (328.15 K).
On to `C1CCCCCC1` [cycloheptane] + CCCCCCCCOS(=O)(=O)[O-].CCCCn1cc[n+](C)c1, for which the activity coefficient (298.15 K) stood at 5.43 ± 0.37, the activity coefficient (313.15 K) stood at 5.52 ± 0.38 and the activity coefficient (328.15 K) stood at 5.68 ± 0.39.
In the same order, the values of `C1CCCCC1` [cyclohexane] + CCCCCCCCOS(=O)(=O)[O-].CCCCn1cc[n+](C)c1 are 4.92 ± 0.34, 5.02 ± 0.34 and 5.17 ± 0.35.
The corresponding values for `C1CCCC1` [cyclopentane] + CCCCCCCCOS(=O)(=O)[O-].CCCCn1cc[n+](C)c1 are 4.09 ± 0.28, 4.24 ± 0.29 and 4.39 ± 0.3.
The corresponding values for `CCCCCCC` [heptane] + CCCCCCCCOS(=O)(=O)[O-].CCCCn1cc[n+](C)c1 are 8.27 ± 0.56, 8.58 ± 0.59 and 9 ± 0.61.
Regarding `C=CCCCC` [hex-1-ene] + CCCCCCCCOS(=O)(=O)[O-].CCCCn1cc[n+](C)c1, the activity coefficient worked out at 5.43 ± 0.37 (298.15 K), 5.76 ± 0.39 (313.15 K) and 6.13 ± 0.42 (328.15 K).
The corresponding values for `CCCCCC` [hexane] + CCCCCCCCOS(=O)(=O)[O-].CCCCn1cc[n+](C)c1 are 7.21 ± 0.49, 7.59 ± 0.52 and 7.98 ± 0.54.
In the same order, the values of `CO` [methanol] + CCCCCCCCOS(=O)(=O)[O-].CCCCn1cc[n+](C)c1 are 0.386 ± 0.033, 0.369 ± 0.033 and 0.36 ± 0.033.
For `C=CCCCCCC` [oct-1-ene] + CCCCCCCCOS(=O)(=O)[O-].CCCCn1cc[n+](C)c1, the activity coefficient was found to be 7.38 ± 0.5 (298.15 K), 7.53 ± 0.51 (313.15 K) and 7.88 ± 0.54 (328.15 K).
In the same order, the values of `CCCCCCCC` [octane] + CCCCCCCCOS(=O)(=O)[O-].CCCCn1cc[n+](C)c1 are 9.63 ± 0.66, 9.96 ± 0.68 and 10.3 ± 0.7.
For `CCCCC` [pentane] + CCCCCCCCOS(=O)(=O)[O-].CCCCn1cc[n+](C)c1, the activity coefficient reads like this: (298.15 K) 6.63 ± 0.45; (313.15 K) 7.14 ± 0.49.
Consider `ClC(Cl)(Cl)Cl` [tetrachloromethane] + CCCCCCCCOS(=O)(=O)[O-].CCCCn1cc[n+](C)c1, for which the activity coefficient (298.15 K) is 1.65 ± 0.11, the activity coefficient (313.15 K) amounted to 1.74 ± 0.12 and the activity coefficient (328.15 K) is 1.85 ± 0.12.
On to `Cc1ccccc1` [toluene] + CCCCCCCCOS(=O)(=O)[O-].CCCCn1cc[n+](C)c1, for which the activity coefficient by setting is: (298.15 K) 1.98 ± 0.13; (313.15 K) 2.02 ± 0.14; (328.15 K) 2.08 ± 0.14.
